Test results as given in patent EP0699074B1, “THROMBIN INHIBITORS” (Merck & Co., Inc., priority 1993, dated 1994).

Biological target: human α-thrombin (Homo sapiens, UniProt P00734)
Details: 4-4 (L at Acg center, later eluting HPLC peak) compared with its diastereomer 4-3 (D)
Protocol: Trypsin assays also contained 1 mM CaCl2.
Concentrations of stock solutions of Z-GPR-afc were determined from measurements of absorbance at 380 nm of the 7-amino-4-trifluoromethyl coumarin produced upon complete hydrolysis of an aliquot of the stock solution by thrombin.
Times required to achieve equilibration between enzyme and inhibitor were determined in control experiments. Initial velocities of product formation in the absence (Vo) or presence of inhibitor (Vi) were measured.

thrombin inhibitor potency (comparison of the two isomers): more potent thrombin inhibitor
Compound: CNC(=O)C(=O)[C@@H](NC(=O)[C@@H]1CCCN1C(=O)[C@@H](Cc1ccccc1)NC)[C@H]1CC[C@H](N)CC1 [4-4, H-NMe-D-Phe-Pro-t-L-AcgΨ[COCO]-NHMe]
